According to US20080171729A1, “Use Of A Steroid For Enhancement Of Skin Permeability” (Novartis AG, priority 2004, published 2008):

Test: Skin penetration/permeation assay in static Franz-type diffusion cells, untreated or corticosteroid pre-treated split-thickness skin
Type: in vitro ADME, domestic pigs
Procedure: Three young, male castrated domestic pigs with body weights of approximately 15 kg are used as skin donors. The animals are obtained from a local breeder and maintained under standardized conditions (22±1°, 55±5% relative humidity, 10 changes of fresh air/hour, 12 hours day/12 hours night cycle). After a settling-in period of 7 days the pigs are treated topically on test areas on the dorsolateral back • with CS solutions in EtOH/propylene glycol (3+7, v/v) as a solvent, and • contra-laterally with solvent alone, twice daily for 5 days. HC (Sigma) at 1.0%, MOM (Sequoia Research Products) at 0.1% and CLO (Sigma) at 0.05% are used as CS. The CS-samples and solvent alone are applied in volumes of 50 μl to skin areas of 3.5×6.5 cm each. All three CS and solvent alone are applied to all animals. 16 hours after the last application the animals are killed and the treated skin samples are dissected. Full-thickness skin samples are dissected from vehicle- and CS-treated sites and cut into 0.4 mm split-thickness skin samples with a dermatome (Aesculap®). The samples include the epidermal layers and the superficial part of the dermis but no deep dermal layers and no subcutaneous fat. […] Schmook F B, Stütz A, Reinhardt J, Skin Pharmacol 1993; 6: 116-124. PBS/EtOH 3:1 is used as receptor phase. All experiments are performed at 32° in triplicates for 48 hours. Test compounds are applied to the epidermal side of the skin samples in their marketed formulations, i.e. Elidel® 1% cream (pimecrolimus) and Protopic® 0.1% ointment (tacrolimus), each in amounts of 300 mg. Samples of 100 μl are taken from the receptor phase at 5 time points during the 48-hours experiment and replaced by fresh receptor fluid. After addition of an internal standard (ASD732, see e.g. EP569337) the samples are directly analyzed by RPLC using MS-based detection. […] Specimens from the stripped skin are taken with a biopsy punch, weighed and then homogenized in 0.1 M sodium phosphate buffer, pH 7. Following addition of an internal standard (ASD732) and buffer of pH 10 to the homogenates, extraction is performed with tert-butyl methylether. Solvent from each extract obtained is evaporated, each residue obtained is redissolved and subjected to analysis by RPLC using MS-based detection. Receptor fluid samples are analyzed by RP-HPLC with MS detection in ESI positive mode (LC-MS/MS analysis). The MS/MS mode is used to increase selectivity. LC-MS/MS analysis is carried out with an Agilent 1100 Series Capillary LC System coupled to a Finnigan LCQ mass spectrometer. A Phenomenex Luna C18(2) column (3 μm, 100×2 mm) equipped with a precolumn is used and eluted isocratically with a flow rate of 100 μl/minute at 60°. The effluent is delivered unsplit to the ESI ion-source. Under the chromatographic conditions used, all compounds tested yield a strong sodium adduct. For MS/MS parent ions are selected. The quantification of the parent ions is based on the area ratio of the fragment ions to the fragment ion of the internal standard.

[1] = pre-treated skin compared with untreated skin

SMILES: CC[C@@H]1/C=C(\C)C[C@H](C)C[C@H](OC)[C@H]2O[C@@](O)(C(=O)C(=O)N3CCCC[C@H]3C(=O)O[C@H](/C(C)=C/[C@@H]3CC[C@H](Cl)[C@H](OC)C3)[C@H](C)[C@@H](O)CC1=O)[C@H](C)C[C@@H]2OC [pimecrolimus]
- permeation rate increased by factor (CLO pre-treatment compared with untreated skin): 4.1
- permeation rate increased by factor (HC-pre-treatment compared with untreated skin): 3.8
- permeation rate increased by factor (MOM pre-treatment compared with untreated skin): 2.9
- skin penetration (skin concentration) enhanced [1]: at least 10%

SMILES: C=CC[C@@H]1/C=C(\C)C[C@H](C)C[C@H](OC)[C@H]2O[C@@](O)(C(=O)C(=O)N3CCCC[C@H]3C(=O)O[C@H](/C(C)=C/[C@@H]3CC[C@H](O)[C@H](OC)C3)[C@H](C)[C@@H](O)CC1=O)[C@H](C)C[C@@H]2OC [tacrolimus]
- permeation rate of tacrolimus in comparison with pimecrolimus, times higher (CLO-pretreated skin): 3.5
- permeation rate of tacrolimus in comparison with pimecrolimus, times higher (HC-pre-treated skin): 5.9
- permeation rate of tacrolimus in comparison with pimecrolimus, times higher (MOM-pre-treated skin): 7.1
- permeation rate increased by factors (corticosteroid pretreated samples (range over HC, MOM, CLO) compared with untreated skin): 1.3-1.9
- skin penetration (skin concentration) enhanced, in words [1]: not significantly
- permeation rate of tacrolimus in comparison with pimecrolimus, times higher (untreated skin): 11.2
